In patent US20260258420A1, “COMPOSITIONS AND METHODS FOR THE TREATMENT OF HUMAN PAPILLOMAVIRUS-DRIVEN CANCERS” (priority 2023, published 2026):

Columns and labels:
[1] = test system: 17 HPV-negative HNSCC and cervical squamous cancer cell lines; test: High-throughput drug screen (HTDS), cell death by AOC_LD, HPV-negative cell lines; format: cell-based; details: for HPV negative Resistant (number of cell lines): resistant = AOC_LD 0; for HPV negative Sensitive (number of cell lines): sensitive = AOC_LD greater than 0
Procedure: (§1) The concordance correlation coefficient was computed to assess the reproducibility of the normalized growth rates of the 2 replicates. […] A chi-square test was applied to compare drug classification and the cluster membership. The Fisher exact test was applied to compare mutations status (wild-type and mutant) and drugs' response data (sensitive and resistant).
(§2) The effects of 864 unique drugs from 51 classes was tested in 16 HPV-positive and 17 HPV-negative HNSCC and cervical squamous cancer cell lines (Table 2) that were characterized previously (Kaiu, et al., Oncotarget 2017; 8(49):86369-83).

[2] = test system: 16 HPV-positive HNSCC and cervical squamous cancer cell lines; test: High-throughput drug screen (HTDS), cell death by AOC_LD, HPV-positive cell lines; format: cell-based; details: for HPV positive Resistant (number of cell lines): resistant = AOC_LD 0; for HPV positive Sensitive (number of cell lines): sensitive = AOC_LD greater than 0
Procedure: as §1, §2

[3] = test system: 16 HPV-positive and 17 HPV-negative HNSCC and cervical squamous cancer cell lines; test: High-throughput drug screen (HTDS), whole panel, comparison by HPV status; format: cell-based; details: for efficacy in HPV-positive vs HPV-negative cell lines: AOC_LD as a dichotomous variable; for odds ratio: sensitivity in HPV-positive vs HPV-negative cell lines
Procedure: as §1, §2

[4] = test system: SiHa; details: cited from earlier work
[5] = test system: ME180; details: cited from earlier work
[6] = test system: CaSki; details: cited from earlier work
[7] = test system: Vu147T; details: cited from earlier work
[8] = test system: UPCI-SCC-090; details: cited from earlier work
[9] = test system: UDSCC2; details: cited from earlier work
[10] = HNSCC patients who received 100 mg/m^2; read-out: plasma Cmax; cited from earlier work

Compound | HPV negative Resistant (number of cell lines) [1] | HPV negative Sensitive (number of cell lines) [1] | HPV positive Resistant (number of cell lines) [2] | HPV positive Sensitive (number of cell lines) [2] | efficacy in HPV-positive vs HPV-negative cell lines [3] | odds ratio [3] | IC50 [4] [µM] | IC50 [5] [µM] | IC50 [6] [µM] | IC50 [7] [µM] | IC50 [8] [µM] | IC50 [9] [µM] | Cmax [10] [µM]
Nc1nc(Nc2ccc(S(N)(=O)=O)cc2)nn1C(=O)c1c(F)cccc1F [JNJ7706621] | 11 | 6 | 4 | 12 | more effective in HPV-positive than in HPV-negative cell lines |  |  |  |  |  |  |  | 
CCCCCCOC(=O)[C@]1(O)C[C@@H]2O[C@@]1(C)n1c3ccccc3c3c4c(c5c6ccccc6n2c5c31)C(=O)NC4 [KT5720] | 17 | 0 | 12 | 4 |  | Inf |  |  |  |  |  |  | 
COC(=O)c1ccc2c(c1)NC(=O)/C2=C(\Nc1ccc(N(C)C(=O)CN2CCN(C)CC2)cc1)c1ccccc1 [NINTEDANIB] | 17 | 0 | 11 | 5 |  | Inf |  |  |  |  |  |  | 
CC(=O)NCC(=O)N1[C@@H]2CC[C@H]1c1ccc(Nc3ncc(C(F)(F)F)c(NC4CCC4)n3)cc12 [PF03814735] | 15 | 2 | 8 | 8 | tended to be more effective in HPV-positive cell lines | 7.02 |  |  |  |  |  |  | 
O=C(Nc1cccc(Cl)c1)Nc1ncc(CCNc2ncnc3ccsc23)s1 [SNS314] | 15 | 2 | 8 | 8 | tended to be more effective in HPV-positive cell lines |  |  |  |  |  |  |  | 
Cc1cc(Nc2cc(N3CCN(C)CC3)nc(Sc3ccc(NC(=O)C4CC4)cc3)n2)[nH]n1 [TOZASERTIB, tozasertib] | 15 | 2 | 7 | 9 | tended to be more effective in HPV-positive cell lines |  |  |  |  |  |  |  | 
COc1cc2c(Nc3ccc(NC(=O)c4ccccc4)cc3)ncnc2cc1OCCCN1CCOCC1 [ZM447439] | 14 | 3 | 6 | 10 | tended to be more effective in HPV-positive cell lines | 7.24 |  |  |  |  |  |  | 
N.N.[Cl][Pt][Cl] [cisplatin] |  |  |  |  |  |  | 28 | 12 | 15 | 11.2 | 11.1 | 18 | 11
BLEOMYCIN | 13 | 4 | 6 | 10 |  | 5.12 |  |  |  |  |  |  | 
WYE354 | 16 | 1 | 10 | 6 |  | 8.98 |  |  |  |  |  |  | 
